Test results as given in ChEMBL document CHEMBL1201862, “PubChem BioAssay data set” (2004).
Several values for one entry are separate records, joined by “and”; a condition that tells them apart may be missing. Equal values may be shown once.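 Test compounds were applied to cells in 96-well plates for 48 hours at 5 doses. GI50: concentration for 50% inhibition of growth.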 Activity calls are given as the source filed them. Cut-off read from the data, not from the text of the source: active = GI50 up to about 1.1 µM and inactive = higher.

Columns and labels:
Assay in all cases: NCI anticancer screen, dose series, 48 h
786-0 = test system: 786-0
A498 = test system: A498
CAKI-1 = test system: CAKI-1
CCRF-CEM = test system: CCRF-CEM
COLO 205 = test system: COLO 205
DLD-1 = test system: DLD-1
DMS-114 = test system: DMS-114
DMS-273 = test system: DMS-273
HCC 2998 = test system: HCC 2998
HCT-15 = test system: HCT-15
HL-60 = test system: HL-60
HOP-18 = test system: HOP-18
Hs-578T = test system: Hs-578T
KM-20L2 = test system: KM-20L2
LOX IMVI = test system: LOX IMVI
LXFL 529 = test system: LXFL 529
M19-MEL = test system: M19-MEL
MCF7 = test system: MCF7
MDA-N = test system: MDA-N
MOLT-4 = test system: MOLT-4
Malme-3M = test system: Malme-3M
NCI-H226 = test system: NCI-H226
NCI-H460 = test system: NCI-H460
NCI/ADR-RES = test system: NCI/ADR-RES
OVCAR-5 = test system: OVCAR-5
PC-3 = test system: PC-3
RXF 631 = test system: RXF 631
SF-539 = test system: SF-539
SK-MEL-28 = test system: SK-MEL-28
SNB-78 = test system: SNB-78
SR = test system: SR
SW-620 = test system: SW-620
UO-31 = test system: UO-31
XF498 = test system: XF498

Measured: GI50

COc1cccc2c1C(=O)c1c(O)c3c(c(O)c1C2=O)C[C@@](O)(C(C)=O)C[C@@H]3OC1CC(N)C(O)C(C)O1 (some centres undefined)
721 nM and 689 nM: HCT-15
active: 786-0 < 17.8 nM and 32.6 nM | A498 146 nM and 197 nM | CAKI-1 81.8 nM and 99.1 nM | CCRF-CEM < 10 nM and 12.8 nM | COLO 205 156 nM and 142 nM | DLD-1 309 nM | DMS-114 37.1 nM | DMS-273 88.9 nM | HCC 2998 154 nM and 167 nM | HL-60 < 11.4 nM and 12.3 nM | HOP-18 118 nM | Hs-578T 168 nM and 192 nM | KM-20L2 194 nM | LOX IMVI < 13.1 nM and 24.9 nM | LXFL 529 74.3 nM | M19-MEL 80 nM | MCF7 8.89 nM | MDA-N 168 nM and 98.9 nM | MOLT-4 < 10 nM and 6.34 nM | Malme-3M 30.3 nM and 54.3 nM | NCI-H226 24 nM and 34.6 nM | NCI-H460 < 10 nM and 5.94 nM | OVCAR-5 201 nM and 238 nM | PC-3 48 nM and 78.9 nM | RXF 631 115 nM | SF-539 39.1 nM and 48.3 nM | SK-MEL-28 167 nM and 303 nM | SNB-78 292 nM | SR 8.39 nM and < 13.5 nM | SW-620 < 16.7 nM and 22.9 nM | UO-31 412 nM and 413 nM | XF498 69 nM
inactive: NCI/ADR-RES 2.42 µM and 4.61 µM
